SMILES strings stand for the structures.

This assay has as its target T1, Ketol-acid reductoisomerase (NADP(+)) (Escherichia coli (strain K12), UniProt P05793).
T1 sequence (P05793 whole entry): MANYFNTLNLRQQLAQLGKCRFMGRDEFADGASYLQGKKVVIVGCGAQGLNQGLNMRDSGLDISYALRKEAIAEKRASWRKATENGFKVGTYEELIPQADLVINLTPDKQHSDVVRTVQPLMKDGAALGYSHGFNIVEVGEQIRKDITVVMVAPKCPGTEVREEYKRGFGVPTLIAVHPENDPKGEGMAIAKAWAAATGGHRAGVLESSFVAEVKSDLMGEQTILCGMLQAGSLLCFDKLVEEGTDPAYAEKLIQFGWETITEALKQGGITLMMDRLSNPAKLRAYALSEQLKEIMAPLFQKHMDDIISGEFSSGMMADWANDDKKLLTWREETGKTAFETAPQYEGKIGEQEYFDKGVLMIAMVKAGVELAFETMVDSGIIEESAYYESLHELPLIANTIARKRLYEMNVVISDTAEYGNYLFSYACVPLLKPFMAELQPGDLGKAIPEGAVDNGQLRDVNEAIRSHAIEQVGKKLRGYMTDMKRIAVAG
In words: Enzyme Inhibition Assay. Particulars: pH 8; 30 °C. The method, then:
Inhibition of E. coli KARI (ketol-acid reductoisomerase) is time dependent, and activity was measured by the decrease in A340 at 30 C in solutions containing 0.2 mM […], 1 mM MgCl2, substrate 2-acetolactate and inhibitor in 0.1 M phosphate buffer at pH 8.0.
Usually Ki stands for a measure of affinity in units of concentration, obtained from inhibition or displacement. Low values mean a stronger hold on the target, high ones a looser hold on the target. Regarding `O=C(O)C1(C(=O)O)CC1` [Cyclopropane, 3], the Ki came out at 76.6 µM. This counts as double-digit micromolar.

For the compound `N#CC1(C(=O)O)CC1` [Cyclopropane, 4], the affinity, expressed as Ki, was 95.3 µM. The Ki values of the last two compounds are within 1.5-fold of each other.

Regarding `NC(=O)C1(C(=O)O)CC1` [Cyclopropane, 5], the affinity, expressed as Ki, was 31.2 µM.

`CC(C)N(O)C(=O)C(=O)O` [N-hydroxy-N-isopropyloxamate, IpOHA] showed a Ki of 2.75 µM. This Ki is about 11-fold lower than that of the compound before.
